Tests used:
[1] = test system: CD8+ T-cells; assay: In vitro T-cell priming assay with aAPCs loaded with peptide/MHC and anti-CD28, pMHC multimer readout; format: cell-based, human; conditions: in vitro immunogenicity, HLA-A*02 restricted peptides
Excerpt: In order to obtain information regarding the immunogenicity of the TUMAPs of the present invention, the inventors performed investigations using an in vitro T-cell priming assay based on repeated stimulations of CD8+ T-cells with artificial antigen presenting cells (aAPCs) loaded with peptide/MHC complexes and anti-CD28 antibody.
In order to perform in vitro stimulations by artificial antigen presenting cells loaded with peptide-MHC complex (pMHC) and anti-CD28 antibody, the inventors first isolated CD8+ T-cells from fresh HLA-A*02 leukopheresis products via positive selection using CD8 microbeads (Miltenyi Biotec, Bergisch-Gladbach, Germany) of healthy donors obtained from the University clinics Mannheim, Germany, after informed consent.
PBMCs and isolated CD8+ lymphocytes were incubated in T-cell medium (TCM) until use consisting of RPMI-Glutamax (Invitrogen, Karlsruhe, Germany) supplemented with 10% heat inactivated human AB serum (PAN-Biotech, Aidenbach, Germany), 100 U/ml Penicillin/100 μg/ml Streptomycin (Cambrex, Cologne, Germany), 1 mM sodium pyruvate (CC Pro, Oberdorla, Germany), 20 μg/ml Gentamycin (Cambrex). 2.5 ng/ml IL-7 (PromoCell, Heidelberg, Germany) and 10 U/ml IL-2 (Novartis Pharma, Nürnberg, Germany) were also added to the TCM at this step.
Generation of pMHC/anti-CD28 coated beads, T-cell stimulations and readout was performed in a highly defined in vitro system using four different pMHC molecules per stimulation condition and 8 different pMHC molecules per readout condition.
The purified co-stimulatory mouse IgG2a anti human CD28 Ab 9.3 (Jung et al., 1987) was chemically biotinylated using Sulfo-N-hydroxysuccinimidobiotin as recommended by the manufacturer (Perbio, Bonn, Germany). Beads used were 5.6 μm diameter streptavidin coated polystyrene particles (Bangs Laboratories, Illinois, USA).
800,000 beads/200 μl were coated in 96-well plates in the presence of 4×12.5 ng different biotin-pMHC, washed and 600 ng biotin anti-CD28 were added subsequently in a volume of 200 μl. Stimulations were initiated in 96-well plates by co-incubating 1×10^6 CD8+ T-cells with 2×10^5 washed coated beads in 200 μl TCM supplemented with 5 ng/ml IL-12 (PromoCell) for 3 days at 37° C. Half of the medium was then exchanged by fresh TCM supplemented with 80 U/ml IL-2 and incubating was continued for 4 days at 37° C. This stimulation cycle was performed for a total of three times. For the pMHC multimer readout using 8 different pMHC molecules per condition, a two-dimensional combinatorial coding approach was used as previously described (Andersen et al., 2012) with minor modifications encompassing coupling to 5 different fluorochromes. Finally, multimeric analyses were performed by staining the cells with Live/dead near IR dye (Invitrogen, Karlsruhe, Germany), CD8-FITC antibody clone SK1 (BD, Heidelberg, Germany) and fluorescent pMHC multimers. For analysis, a BD LSRII SORP cytometer equipped with appropriate lasers and filters was used. Peptide specific cells were calculated as percentage of total CD8+ cells. Evaluation of multimeric analysis was done using the FlowJo software (Tree Star, Oregon, USA). In vitro priming of specific multimer+ CD8+ lymphocytes was detected by comparing to negative control stimulations.

[2] = target: HLA-A*02:01 (Homo sapiens, UniProt P04439, D140Y/D185E/D98H/E176V/E277Q/G131W/G231S/I119V/I121R/I166T/I218V/L300P/L318F/N151K/N90K/P208A/P217A/Q86G/Q94H/R138H/R169H/T345S); assay: MHC binding assay (UV-ligand exchange, beta2m ELISA, peptide exchange yield); conditions: MHC class I binding score; binding to HLA-A*02:01 ranged by peptide exchange yield (UV-ligand exchange, β2m ELISA)
Procedure, shortened: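 Binding capacity is expressed as the yield of UV-mediated ligand exchange, reflecting how well each peptide stabilizes peptide-receptive MHC. Stabilized complexes are read out by anti-β2m HRP ELISA (450 nm) after streptavidin capture, with refolded MLA-001 monomer standards for quantitation.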

| Peptide exchange [2] | Substance | Wells positive [1] |
| --- | --- | --- |
| ″+++″ (≥50 = +++) | 142 (SLVQRVETI; listed as Homo sapiens) [compound 142] | ″+″ (<20% = +) |
| ″+++″ (≥50 = +++) | 150 (RLADLEALKV; listed as Homo sapiens) [compound 150] | ″++″ (20%-49% = ++) |
